Measured values taken from patent US10092548B2, “Pharmaceutical compositions for preventing or treating angiogenic diseases comprising inhibitors of NUP153 gene expression or NUP153 activity as active ingredient” (INDUSTRY-ACADEMIC COOPERATION FOUNDATION, YONSEI UNIVERSITY, priority 2013, dated 2018).

Key:
[1] = test system: retinal neovascularization; assay: Oxygen-induced retinopathy (OIR), counting vascular lumens; type: in vivo, C57BL/6 mice; conditions: mice, 20 μM in 1 μL PBS intravitreously on P14, read at P17, compared to control group
Excerpt: OIR was induced as described by Smith et al. (Smith et al., Invest. Ophthalmol. Vis. Sci 35, 101-111 (1994)) with some modifications (Zhang et al., Diabetologia 44, 757-765 (2001)). Briefly, newborn mice were arbitrarily assigned to experimental and control groups. At postnatal day 7 (P7), pups (8-10 pups) in the experimental group were exposed to hyperoxia (75±0.5% 02) for 5 days (P7-P12) and then returned to normoxia (room air) for 6 days. Neovascularization occurs upon return to normoxia and peaks at P17. To assess the anti-angiogenic activity of OMe-Syn, the pups were injected intravitreously with 20 μM OMe-Syn in 1 μL PBS on P14, when maximum retinal neovascularization began.
At P17, the eyes were removed, fixed in 4% paraformaldehyde in 0.1 M phosphate buffer for 24 hours, and embedded in paraffin. Sagittal sections of 5 μm, each 30 μm apart, were cut through the cornea parallel to the optic nerve. The sections were stained with hematoxylin and eosin to assess retinal vasculature via light microscopy (Carl Zeiss, Chester, Va., USA). Any vascular lumens on the vitreal side of the inner limiting membrane were counted in at least 10 sections from each eye by two independent observers blind to treatment. The average intravitreal vessels/section was calculated for each group. There were at least six animals in each group.

NPC = assay: Preliminary investigation of NPC integrity under OMe-Syn treatment
[2] = molecular target: T1, purified N-terminal partial domain of NUP153 (Homo sapiens, UniProt P49790); assay: Surface plasmon resonance (SPR) analysis, BIAcore 2000; type: binding
T1 construct: a PCR-amplified N-terminus (amino acids 235-326) cDNA of NUP153 (NM_005124); inferred from the pET-28a vector and Ni-NTA purification; made in house; host or cells: Rosetta (DE3) E. coli
T1 sequence (P49790 235-326): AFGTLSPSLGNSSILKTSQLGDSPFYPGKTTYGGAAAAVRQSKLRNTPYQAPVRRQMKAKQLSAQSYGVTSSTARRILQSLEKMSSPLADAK
Excerpt: To obtain the recombinant NUP153 protein from bacteria, a PCR-amplified N-terminus (amino acids 235-326) cDNA of NUP153 (NM_005124) was into the EcoRI/SalI site of pET-28a expression vector (Novagen, Billerica, Mass.). Rosetta™ (DE3) E. coli strains were transformed with the plasmid and N-terminus partial domain of NUP153 protein was purified using Ni-NTA agarose bead (Quiagen, Hilden, Germany). Bead bound protein was eluted with elution buffer containing high concentration of imidazole according to the manufacturer's instructions.
Biotin and biotinylated OMe-Syn were sequentially immobilized on the surface of a streptavidin-coated sensor chip. Molecular interaction analysis was performed using the BIAcore 2000 (BIAcore AB) as described previously (Shim et al., Chem. Biol 11, 1455-1463 (2004)). The SPR response curves were analyzed with BIAcore Evaluations software, version 3.1. The apparent association and dissociation constants were calculated from the kinetic constants equations: KA=ka/kd, KD=kd/ka
To examine the binding affinity of OMe-Syn to NUP153, the N-terminal partial domain of NUP153, which corresponds to phage coding sequences (FIG. 2E), was cloned and expressed in Escherichia coli. The cloning and purification of recombinant NUP153 is described in the experimental procedures. […]

[3] = test system: intersegmental vessel (ISV) angiogenesis of zebrafish embryos; assay: ISV angiogenesis in fli1a:EGFP transgenic zebrafish embryos; type: in vivo; conditions: 30 hpf
Description: (§1) Zebrafish were maintained on 14 hours light/dark cycle at 28° C. All experiments involving zebrafish were performed according to the National Institute of Health guidelines. Embryos were collected and raised in Ringer's solution according to standard protocol (Westerfield, 1995). Zebrafish were injected in Ringer's solution at the one-cell stage with morpholino oligonucleotides (MO). MO was obtained from Gene Tools (Philomath, Oreg.) with the following sequence to block 5′ translation of NUP153: 5′-[…]-3′ (SEQ ID NO:2) and splicing of NUP153: 5′-[…]-3′ (SEQ ID NO:3), respectively. DMSO and OMe-Syn stock solution (10 mM in DMSO) were dissolved in ringer's solution to appropriate concentrations. […] Embryos were added to the solutions at one cell stage. Tricaine supplied in Ringer's solution (0.6%, w/v) was used to anesthetize the embryos for imaging. Microscopy images of zebrafish were taken with Fluoview FV1000, Olympus.
(§2) The present inventors previously reported that OMe-Syn, an anti-angiogenic small molecule, inhibited VEGF-induced angiogenesis in vitro and in vivo (Kim et al., Biochem. Biophys. Res. Commun 399, 20-23 (2010)). The anti-angiogenic activity of OMe-Syn was further investigated using fli1a:EGFP transgenic zebrafish, a well-established model organism for studying angiogenesis through visualization of blood vessel development.
The present inventors further examined the function of NUP153 in vivo in intersegmental vessel (ISV) angiogenesis of zebrafish embryos using a morpholino oligonucleotide (MO) specific to NUP153. NUP153-specific MOs that block the splicing (n=31) or translation (n=28) of NUP153 were injected into fli1a:EGFP transgenic embryos at the one-cell stage. The blocking of NUP153 splicing was monitored by reverse transcription-polymerase chain reaction (RT-PCR) (FIG. 6A).

[4] = test system: vascular endothelial growth factor (VEGF)-induced angiogenesis; conditions: in vitro and in vivo; Kim et al., 2010; cited from earlier work
NUP153-expressing phage = molecular target: T2, NUP153-expressing phage (Homo sapiens, UniProt P49790); assay: Phage binding and phage competition assay
T2 construct: host or cells: T7 phage clone isolated from human cDNA libraries (colon tumor, lung tumor, heart)
T2 sequence (P49790 245-326): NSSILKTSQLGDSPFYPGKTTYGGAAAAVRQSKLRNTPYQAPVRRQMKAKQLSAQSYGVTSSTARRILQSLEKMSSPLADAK

VEGF mRNA = VEGF mRNA level in treated zebrafish embryos by RT-PCR; type: in vivo; conditions: compared with DMSO-treated controls
Description: as §1, §2

CNC[C@H](OC)c1ccc(O)cc1 [OMe-Syn, R-(−)-β-O-Methylsynephrine]
number of vascular lumens (retinal neovascularization) [1]: effectively reduced number of vascular lumens
NPC integrity and NPC protein interactions (NPC): leaves the NPC intact and does not disrupt NPC protein interactions
Kd [2]: 2.4 nM
SPR binding of purified NUP153 to immobilized compound ([2]; compound immobilized on sensor chip, purified NUP153 20 μM): specifically bound
viability / toxicity of embryos [3]: without compromising the viability
number of complete intersegmental vessels (ISVs) and angiogenic sprouts ([3]; OMe-Syn 2.5 and 5 μM, 5′-MO 8 ng, sp-MO 12 ng): decreased number of complete intersegmental vessels (ISVs) in a dose-dependent manner
inhibition of VEGF-induced angiogenesis [4]: inhibit vascular endothelial growth factor (VEGF)-induced angiogenesis in vitro and in vivo
binding of NUP153-expressing phage to immobilized compound (NUP153-expressing phage; phage binding assay, versus biotin): specifically bound to OMe-Syn
phage competition: binding of phage to immobilized OMe-Syn after pre-incubation (NUP153-expressing phage; pre-incubation with OMe-Syn 50, 100 μM for 1 hour): blocked the binding of the phage to immobilized OMe-Syn in a dose-dependent manner
VEGF mRNA level (VEGF mRNA): reduced
